Turning to `CCN1CCN(c2ccc(Nc3cc(N(C)C(=O)Nc4cc(OC)c(Cl)c(C(F)(F)F)c4Cl)ncn3)cc2)CC1` [Example 25, 3-(2,4-Dichloro-5-methoxy-3-trifluoromethyl-phenyl)-1-{6-[4-(4-ethyl-piperazin-1-yl)-phenylamino]-pyrimidin-4-yl}-1-methyl-urea], the melting point was in the range of 143 to 144 °C.

The record behind these values is patent publication US8293746B2, “Pyrimidinyl aryl urea derivatives being FGF inhibitors” (Novartis AG, priority 2005, dated 2012).
